Legend:
Assay type in all cases: biochemical
Settings in all cases: acetyl-CoA constant 10 mM, 40 mM Tris-HCl pH 8, 2 mM MgCl2, 37° C., 40 h
[1] = target: T1, Gallus gallus (Chicken) HMG-CoA synthase, cytoplasmic, P23228, SEQ ID NO: 7 (Gallus gallus, UniProt P23228); assay: Kinetic parameters for the enzymatic reaction between acetyl-CoA and acetone, HMG-CoA synthase of Gallus gallus
T1 construct: made in house; host or cells: E. coli BL21
T1 sequence (P23228 1-522): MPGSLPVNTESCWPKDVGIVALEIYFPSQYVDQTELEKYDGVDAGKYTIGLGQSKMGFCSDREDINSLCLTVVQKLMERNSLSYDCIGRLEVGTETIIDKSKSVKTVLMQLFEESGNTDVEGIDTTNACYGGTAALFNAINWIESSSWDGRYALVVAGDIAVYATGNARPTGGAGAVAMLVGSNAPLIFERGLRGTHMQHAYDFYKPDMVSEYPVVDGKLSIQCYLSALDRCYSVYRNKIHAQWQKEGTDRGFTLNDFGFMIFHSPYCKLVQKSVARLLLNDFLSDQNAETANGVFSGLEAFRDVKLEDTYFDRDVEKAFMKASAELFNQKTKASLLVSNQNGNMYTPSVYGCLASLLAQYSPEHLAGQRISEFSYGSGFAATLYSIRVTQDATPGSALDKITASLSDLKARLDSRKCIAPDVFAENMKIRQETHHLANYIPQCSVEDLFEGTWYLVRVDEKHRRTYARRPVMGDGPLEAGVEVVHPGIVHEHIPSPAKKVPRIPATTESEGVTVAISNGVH
Procedure: (§1) Kinetic Parameters for the Enzymatic Reaction Between Acetyl-CoA and Acetone in the Case of HMG Synthases
(§2) The kinetic parameters were measured using a variable concentration of acetone and a constant concentration of acetyl-CoA (10 mM) in following conditions:
(§3) The final pH was adjusted to 8.
(§4) The reaction was initiated by the addition of 3 mg of purified enzyme to the 1 ml reaction mixture. The mixture was then incubated without shaking at 37° C. for 40 h.
(§5) Analysis of 3-hydroxy-3-methylbutyrate Production
(§6) Thermochemical conditions leading to the decomposition of 3-hydroxy-3-methylbutyrate into isobutene were applied (Pressman et al., JACS, 1940, 2069-2080): the pH of the reaction mixtures was first adjusted to pH 4 using 6N HCl and the samples were then transferred into gas chromatography vials (Interchim). The vials were sealed and incubated at 110° C. for 4 hours, thus leading to the decomposition of 3-hydroxy-3-methylbutyrate into isobutene.
(§7) The calibration curve was prepared in the same conditions using commercial 3-hydroxy-3-methylbutyrate.
(§8) One milliliter of headspace gas was collected and injected into a HP5890 gas chromatograph (HP) equipped with a FID detector and a CP SilicaPlot® column (chromatography column; Varian). Commercial isobutene was used as reference. From the isobutene signal the amount of 3-hydroxy-3-methylbutyrate initially present in the sample was calculated.

[2] = target: Staphylococcus epidermidis HMG-CoA synthase, Q8CN06, SEQ ID NO: 11 (Staphylococcus epidermidis, UniProt Q9FD76); assay: Kinetic parameters for the enzymatic reaction between acetyl-CoA and acetone, HMG-CoA synthase of Staphylococcus epidermidis
Procedure: as §1, §2, §3, §4, §5, §6, §7, §8

[3] = target: T2, Schizosaccharomyces pombe (Fission yeast) HMG-CoA synthase, cytoplasmic, P54874, SEQ ID NO: 2 (Schizosaccharomyces pombe, UniProt P54874); assay: Kinetic parameters for the enzymatic reaction between acetyl-CoA and acetone, HMG-CoA synthase of Schizosaccharomyces pombe
T2 construct: made in house; host or cells: E. coli BL21
T2 sequence (P54874 1-447): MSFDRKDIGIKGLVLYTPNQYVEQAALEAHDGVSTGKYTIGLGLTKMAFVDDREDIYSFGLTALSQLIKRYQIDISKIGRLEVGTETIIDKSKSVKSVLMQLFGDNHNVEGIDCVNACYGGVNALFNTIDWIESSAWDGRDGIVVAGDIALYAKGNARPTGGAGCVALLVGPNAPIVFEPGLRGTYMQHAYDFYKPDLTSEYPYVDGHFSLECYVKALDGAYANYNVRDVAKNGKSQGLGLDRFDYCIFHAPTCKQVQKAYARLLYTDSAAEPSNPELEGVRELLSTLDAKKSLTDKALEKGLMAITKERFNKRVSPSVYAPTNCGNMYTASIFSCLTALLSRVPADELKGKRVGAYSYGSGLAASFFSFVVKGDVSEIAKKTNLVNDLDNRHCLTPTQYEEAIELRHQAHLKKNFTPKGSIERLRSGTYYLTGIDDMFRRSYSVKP
Procedure: as §1, §2, §3, §4, §5, §6, §7, §8

Chain of Staphylococcus epidermidis HMG-CoA synthase, Q8CN06, SEQ ID NO: 11 (Q9FD76 entry or part of it, one chain of several): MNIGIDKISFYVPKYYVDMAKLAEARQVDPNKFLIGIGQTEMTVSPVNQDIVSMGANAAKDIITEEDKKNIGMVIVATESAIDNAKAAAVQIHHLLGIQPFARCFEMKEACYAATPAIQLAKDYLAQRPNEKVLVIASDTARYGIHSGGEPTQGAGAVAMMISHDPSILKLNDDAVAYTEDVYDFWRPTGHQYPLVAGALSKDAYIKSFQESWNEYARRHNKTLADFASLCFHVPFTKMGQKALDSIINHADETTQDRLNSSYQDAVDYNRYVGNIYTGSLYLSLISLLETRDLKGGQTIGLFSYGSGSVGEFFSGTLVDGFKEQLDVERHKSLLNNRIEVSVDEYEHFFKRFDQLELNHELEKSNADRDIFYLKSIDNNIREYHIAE

## CC(C)=O [acetone]
[1]; 0-1 M acetone
  kcat: 5 × 10^−4, sec^−1
[1]; acetone
  kcat/KM: 2 × 10^−6, mM^−1 × sec−^1
[2]; 0-1 M acetone
  kcat: 0.6 × 10^−4, sec^−1
[2]; acetone
  kcat/KM: 0.3 × 10^−6, mM^−1 × sec−^1
[3]; 0-1 M acetone
  kcat: 0.2 × 10^−4, sec^−1
[3]; acetone
  kcat/KM: 0.1 × 10^−6, mM^−1 × sec−^1

From patent US9556460B2, “Method for the production of 3-hydroxy-3-methylbutyric acid from acetone and an activated acetyl compound” (Scientist of Fortune, S.A., priority 2009, dated 2017)
